Laboratory results from patent US20260042764A1, “COMPOSITIONS AND METHODS FOR INHIBITION OF KRAS” (TheRas, Inc., priority 2022, published 2026).

Tests used:
GP2d cells (KRAS G12D) = experiment: Cell-based pERK HTRF assay in GP2d cell (Biological Example 2); settings: GP2d (KRAS G12D) cells, pERK HTRF
Summary of the method: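 Phospho-ERK is measured by HTRF following a 60 min compound exposure at 0.25% DMSO, with a 9-point half-log curve topping at 1 μM or 100 nM.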

[1] = biological target: T1, Avi-KRAS WT (1-169) GppNHp/RAF1 RBD-3xFLAG (52-151) (Homo sapiens, UniProt P01116); experiment: Raf1-KRAS WT-GppNHP disruption HTRF assay (Biological Example 1); assay type: binding
T1 construct: Avi-KRAS WT (1-169)
Summary of the method: (§1)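 Compound disruption of KRAS-GppNHp/RAF1 RBD binding read by HTRF after two sequential 1 h room-temperature incubations (protein mix, then detection reagents), shaken at 700 rpm. Buffer Tris pH 7.5 with MgCl2, BSA, Tween and 10% DMSO; results given as percent activity relative to DMSO (100%).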

SW620 cells (KRAS G12V) = experiment: Cell-based pERK HTRF assay in SW620 cell (Biological Example 4); settings: pERK HTRF
Summary of the method: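 SW620 seeded in RPMI/10% FBS, next day dosed 4 h (top 1 μM, half-log, 9 pts, 0.25% DMSO). Lysed, pERK by d2/Eu cryptate HTRF, 4–24 h RT, 615 nm read.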

[2] = biological target: T2, Avi-KRAS G12V (1-169) GppNHp/RAF1 RBD-3xFLAG (52-151) (Homo sapiens, UniProt P01116, G12V); experiment: Raf1-KRAS G12V-GppNHP disruption HTRF assay (Biological Example 1); assay type: binding
T2 construct: Avi-KRAS G12V (1-169)
Summary of the method: as §1

[3] = biological target: T3, Avi-KRAS G12D (1-169) GppNHp/RAF1 RBD-3xFLAG (52-151) (Homo sapiens, UniProt P01116, G12D); experiment: Raf1-KRAS G12D-GppNHP disruption HTRF assay (Biological Example 1); assay type: binding
T3 construct: Avi-KRAS G12D (1-169)
Summary of the method: as §1

[4] = biological target: T4, Avi-KRAS G12R (1-169) GppNHp/RAF1 RBD-3xFLAG (52-151) (Homo sapiens, UniProt P01116, G12R); experiment: Raf1-KRAS G12R-GppNHP disruption HTRF assay (Biological Example 1); assay type: binding
T4 construct: Avi-KRAS G12R (1-169)
Summary of the method: as §1

[5] = KRAS WT, GppNHp-loaded, class symbols
[6] = Homo sapiens, SW-620, SW620 (KRAS G12V) cells, class symbols
[7] = KRAS G12V, GppNHp-loaded, class symbols
[8] = KRAS G12D, GppNHp-loaded, class symbols
[9] = KRAS G12R, GppNHp-loaded, class symbols
[10] = KRAS WT, GppNHp-loaded, Table 11
[11] = KRAS G12V, GppNHp-loaded, Table 11
[12] = KRAS G12D, GppNHp-loaded, Table 11
[13] = KRAS G12R, GppNHp-loaded, Table 11
[14] = Homo sapiens, SW-620, SW620 (KRAS G12V) cells

T1 sequence (P01116 1-169 isoform P01116-2): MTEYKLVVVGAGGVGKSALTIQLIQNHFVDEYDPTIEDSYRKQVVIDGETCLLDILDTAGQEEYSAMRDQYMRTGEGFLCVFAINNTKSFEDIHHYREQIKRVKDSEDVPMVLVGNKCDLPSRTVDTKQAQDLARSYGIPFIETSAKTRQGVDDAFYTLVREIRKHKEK
T3 sequence (P01116 1-169 isoform P01116-2 G12D): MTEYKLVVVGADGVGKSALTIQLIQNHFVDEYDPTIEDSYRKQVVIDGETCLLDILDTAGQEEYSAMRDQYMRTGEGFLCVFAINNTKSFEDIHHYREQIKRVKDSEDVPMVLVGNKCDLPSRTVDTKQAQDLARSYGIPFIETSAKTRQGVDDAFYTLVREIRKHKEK
T4 sequence (P01116 1-169 isoform P01116-2 G12R): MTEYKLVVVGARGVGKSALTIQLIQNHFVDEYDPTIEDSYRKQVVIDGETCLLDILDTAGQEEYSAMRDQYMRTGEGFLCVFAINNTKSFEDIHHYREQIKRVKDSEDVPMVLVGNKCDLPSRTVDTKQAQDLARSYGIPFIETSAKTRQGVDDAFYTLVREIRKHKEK
T2 sequence (P01116 1-169 isoform P01116-2 G12V): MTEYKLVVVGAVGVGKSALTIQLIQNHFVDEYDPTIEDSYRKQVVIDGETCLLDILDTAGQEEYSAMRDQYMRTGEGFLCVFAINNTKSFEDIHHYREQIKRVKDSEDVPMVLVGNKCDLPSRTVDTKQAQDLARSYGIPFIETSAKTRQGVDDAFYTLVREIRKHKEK

| Compound | IC50 (GP2d cells (KRAS G12D); GP2d) [nM] | IC50 (SW620 cells (KRAS G12V); [14]) [nM] | IC50 ([1]; KRAS WT-GppNHp/RAF1 RBD HTRF) [nM] | IC50 ([2]; KRAS G12V-GppNHp/RAF1 RBD HTRF) [nM] | IC50 ([3]; KRAS G12D-GppNHp/RAF1 RBD HTRF) [nM] | IC50 ([4]; KRAS G12R-GppNHp/RAF1 RBD HTRF) [nM] | other results |
| --- | --- | --- | --- | --- | --- | --- | --- |
| CCN(c1nc(OC[C@@]23CCCN2C[C@H](F)C3)nc2c(F)c(-c3ccc(F)c4sc(N)c(C#N)c34)c(C(F)(F)F)cc12)[C@H]1CCN(C(=O)[C@H](C)OC)C1 (atropisomer, axis not shown) [Compound 571] |  |  |  |  |  |  | IC50 (GP2d cells (KRAS G12D); GP2d, class symbols): < 100 nM; IC50 [1, 5]: < 100 nM; IC50 (SW620 cells (KRAS G12V); [6]): < 100 nM; IC50 [2, 7]: < 100 nM; IC50 [3, 8]: < 100 nM; IC50 [4, 9]: < 100 nM |
| CCN(c1nc(OC[C@H]2C[C@@H](OC)CN2C)nc2c(F)c(-c3ccc(F)c4sc(N)c(C#N)c34)c(C(F)(F)F)cc12)[C@H]1CCN(C(=O)C(C)C)C1 [Compound 592] |  |  |  |  |  |  | IC50 (GP2d cells (KRAS G12D); GP2d, class symbols): < 100 nM; IC50 [1, 5]: 1000 to 10000 nM; IC50 (SW620 cells (KRAS G12V); [6]): 100 to 1000 nM; IC50 [2, 7]: 1000 to 10000 nM; IC50 [3, 8]: 1000 to 10000 nM; IC50 [4, 9]: 1000 to 10000 nM |
| CN(c1nc(OC[C@@]23CCCN2C[C@H](F)C3)nc2c(F)c(-c3ccc(F)c4sc(N)c(C#N)c34)c(C(F)(F)F)cc12)[C@]1(CC#N)C[C@@H](O)C1 (atropisomer, axis not shown) [Compound 254] |  |  |  |  |  |  | IC50 (GP2d cells (KRAS G12D)): 100 to 1000 nM; IC50 [1, 10]: 100 to 1000 nM; IC50 (SW620 cells (KRAS G12V); SW620 (KRAS G12V) cells): > 1000 nM; IC50 [2, 11]: 1000 to 10000 nM; IC50 [3, 12]: 100 to 1000 nM; IC50 [4, 13]: 1000 to 10000 nM |
| CC(=O)N1C[C@@H](N(C)c2nc(OC[C@@]34CCCN3C[C@H](F)C4)nc3c(F)c(-c4ccc(F)c5sc(N)c(C#N)c45)c(C(F)(F)F)cc23)C[C@H]1C [Compound 277] | < 100 | < 100 |  |  |  |  | IC50 [1, 10]: 100 to 1000 nM; IC50 [2, 11]: 100 to 1000 nM; IC50 [3, 12]: 100 to 1000 nM; IC50 [4, 13]: 100 to 1000 nM |
| COC1C2CN(c3nc(OC[C@@]45CCCN4C[C@H](F)C5)nc4c(F)c(-c5ccc(F)c6sc(N)c(C#N)c56)c(C(F)(F)F)cc34)C1CO2 (stereo partly drawn) [Compound 509] | < 100 | < 100 | 100 to 1000 | 100 to 1000 | 100 to 1000 | 100 to 1000 |  |
| CN1CC[C@H](N(C)c2nc(OC[C@@]34CCCN3C[C@H](F)C4)nc3c(F)c(-c4ccc(F)c5sc(N)c(C#N)c45)c(C(F)(F)F)cc23)CC1=O [Compound 281] | < 100 | < 100 | 100 to 1000 | 1000 to 10000 | 100 to 1000 | 100 to 1000 |  |
| CCN(c1nc(OC[C@@]23CCCN2C[C@H](F)C3)nc2c(F)c(-c3ccc(F)c4sc(N)c(C#N)c34)c(C(F)(F)F)cc12)[C@H]1CCN(C(=O)OC(C)C)C1 (atropisomer, axis not shown) [Compound 556] | < 100 | < 100 | 100 to 1000 | 100 to 1000 | < 100 | < 100 |  |
| N#Cc1c(N)sc2c(F)ccc(-c3c(C(F)(F)F)cc4c(N5CCc6nocc6C5)nc(OC[C@@]56CCCN5C[C@H](F)C6)nc4c3F)c12 [Compound 457] | < 100 | < 100 | 100 to 1000 | 100 to 1000 | 100 to 1000 | 100 to 1000 |  |
| CC(=O)N1CC[C@@H](N(C)c2nc(OC[C@@]34CCCN3C[C@H](F)C4)nc3c(F)c(-c4ccc(F)c5sc(N)c(C#N)c45)c(C(F)(F)F)cc23)[C@@H]1C [Compound 190, 4-(4-(((2S,3R)-1-acetyl-2-methylpyrrolidin-3-yl)(methyl)amino)-8-fluoro-2-(((2R,7aS)-2-fluorotetrahydro-1H-pyrrolizin-7a(5H)-yl)methoxy)-6-(trifluoromethyl)quinazolin-7-yl)-2-amino-7-fluorobenzo[b]thiophene-3-carbonitrile] | < 100 | 100 to 1000 |  |  |  |  | IC50 [1, 10]: 100 to 1000 nM; IC50 [2, 11]: 100 to 1000 nM; IC50 [3, 12]: 100 to 1000 nM; IC50 [4, 13]: 100 to 1000 nM |
| CN(C)C(=O)c1nn2c(c1C(F)(F)F)CN(c1nc(OC[C@@]34CCCN3C[C@H](F)C4)nc3c(F)c(-c4ccc(F)c5sc(N)c(C#N)c45)c(C(F)(F)F)cc13)CC2 (atropisomer, axis not shown) [Compound 596] |  |  |  |  |  |  | IC50 (GP2d cells (KRAS G12D); GP2d, class symbols): < 100 nM; IC50 [1, 5]: 100 to 1000 nM; IC50 (SW620 cells (KRAS G12V); [6]): < 100 nM; IC50 [2, 7]: 100 to 1000 nM; IC50 [3, 8]: < 100 nM; IC50 [4, 9]: 100 to 1000 nM |
| CC(=O)N1CC[C@@H](N(C)c2nc(OC[C@@]34CCCN3C[C@H](F)C4)nc3c(F)c(-c4ccc(F)c5oc(N)c(C#N)c45)c(C(F)(F)F)cc23)[C@H]1C [Compound 326] | < 100 | 100 to 1000 | 100 to 1000 | 1000 to 10000 | 100 to 1000 | 100 to 1000 |  |
| C[C@@H]1Cn2nncc2CN1c1nc(OC[C@@]23CCCN2C[C@H](F)C3)nc2c(F)c(-c3ccc(F)c4sc(N)c(C#N)c34)c(C(F)(F)F)cc12 (atropisomer, axis not shown) [Compound 530] | < 100 | < 100 | 100 to 1000 | 100 to 1000 | 100 to 1000 | 100 to 1000 |  |
| CC(=O)N1CC[C@](C)(N(C)c2nc(OC[C@@]34CCCN3C[C@H](F)C4)nc3c(F)c(-c4ccc(F)c5sc(N)c(C#N)c45)c(C(F)(F)F)cc23)C1 [Compound 505] | < 100 | 100 to 1000 | 1000 to 10000 | 1000 to 10000 | 1000 to 10000 | 1000 to 10000 |  |
| CC(=O)N1C[C@H]2CCN(c3nc(OC[C@@]45CCCN4C[C@H](F)C5)nc4c(F)c(-c5ccc(F)c6sc(N)c(C#N)c56)c(C(F)(F)F)cc34)[C@H]2C1 [Compound 210] | < 100 | 100 to 1000 |  |  |  |  | IC50 [1, 10]: 100 to 1000 nM; IC50 [2, 11]: 100 to 1000 nM; IC50 [3, 12]: 1000 to 10000 nM; IC50 [4, 13]: 1000 to 10000 nM |
| CC(=O)NCCN(C)c1nc(OC[C@@]23CCCN2C[C@H](F)C3)nc2c(F)c(-c3ccc(F)c4sc(N)c(C#N)c34)c(C(F)(F)F)cc12 [Compound 284] | < 100 | < 100 | 100 to 1000 | 100 to 1000 | 100 to 1000 | 100 to 1000 |  |
| CCN(c1nc(OC[C@@]23CCCN2C[C@H](F)C3)nc2c(F)c(-c3ccc(F)c4sc(N)c(C#N)c34)c(C(F)(F)F)cc12)[C@H]1C[C@@H]2CCC(=O)N2C1 (atropisomer, axis not shown) [Compound 628] |  |  |  |  |  |  | IC50 (GP2d cells (KRAS G12D); GP2d, class symbols): < 100 nM; IC50 [1, 5]: < 100 nM; IC50 (SW620 cells (KRAS G12V); [6]): < 100 nM; IC50 [2, 7]: < 100 nM; IC50 [3, 8]: < 100 nM; IC50 [4, 9]: < 100 nM |
| CN(C)C(=O)c1cnn2c1CN(c1nc(OC[C@@]34CCCN3C[C@H](F)C4)nc3c(F)c(-c4ccc(F)c5sc(N)c(C#N)c45)c(C(F)(F)F)cc13)CC2 [Compound 353] | < 100 | < 100 | 1000 to 10000 | 1000 to 10000 | 100 to 1000 | 1000 to 10000 |  |
